Laboratory results as given in patent US20080286315A1, “Methionine Enkephalin as an Adjuvant for Vaccine Immunizations” (Penta Biotech, Inc., priority 2007, published 2008).

Legend:
Format in all cases: cell-based, IRM-2 mice
immature dendritic cells = assay: Dendritic cell density and proliferation with different concentrations of MEK (cell counting / MTT assay); details: for Cell Density: 9 days culture with IL-4 and GM-CSF; for Increase Percent: control = 100.0
Experimental: (§1) Immature dendritic cells were isolated from spleens of IRM-2 mice with lymphocyte separation solution. The method used was adapted from a method of isolating lymphocytes using a centrifugation technique. First, diluted defibrinated blood was layered on a solution of sodium metrizoate and Dextran or Ficoll® and centrifuged at low speeds for 30 minutes. […] Mononuclear cells (lymphocytes and monocytes) and platelets are contained in the banded plasma-lymphocyte separation medium interphase due to their density. Erythrocytes and granulocytes migrate through the gradient and form a pellet to the bottom of the tube. Lymphocytes were recovered by aspirating the plasma layer and removing the cells. After proper washing and treatment, cells were suspended in RPMI-1640 containing 10% FCS and incubated in a CO2-incubator (37° C., 5% CO2) for 2 hours before use.
(§2) The immature dendritic cells were divided into 6 groups and were centrifuged to remove the supernatants. RPMI-1640 containing 10 ng/ml IL-4, 100 ng/ml GM-CSF, 10% FCS, and MEK at either 0 ng/ml, 7.5 ng/ml, 15 ng/ml, 30 ng/ml, 60 ng/ml or 120 ng/ml was then added to the cells. The final cell density was 2×10^5 cells/ml. Cells were returned to the CO2-incubator and the media were replaced in half volumes every other day starting on the 3rd day. Cells were allowed to grow for 9 days and thereafter cell numbers were counted with an inverted phase-contrasted microscope. The group of cells having the highest density was regarded as having the most optimum conditions in terms of concentration for cytokines. Cell density was determined using the MTT [3-(4,5-Dimethylthiazol-2-yl)-2,5-Diphenyltetrazolium Bromide] assay, using methods known in the art. MEK facilitated the growth and multiplication of dendritic cells in a concentration dependent fashion. The effects were greatest with a MEK concentration at around 60 ng/ml and then decreased thereafter as MEK concentration increased.

cultured dendritic cells = assay: IL-12 levels in supernatants of cultured dendritic cells (IL-12 ELISA); details: supernatant day 9
Experimental: as §1, §2
To further characterize the cultured cells, cell culture supernatants were collected on the 9th day of incubation and were assayed according to the procedures defined in the IL-12 ELISA Assay Kit obtained from eBioscience, USA. IL-12 is a cytokine known to be secreted by mature dendritic cells.

dendritic cells [1] = assay: Micrographs of dendritic cells (400x); details: 60 ng/ml MEK; with IL-4 and GM-CSF
From the text: FIGS. 1 and 2 show micrographs of dendritic cells magnified 400×. Cells were isolated and cultured as described above.

dendritic cells [2] = assay: Dendritic cell surface marker expression (FITC antibodies to CD11c and CD80, flow cytometry); details: day 9
Experimental: as §1, §2
Cells isolated and cultured as described above were processed on the 9th day with the addition of FITC labeled antibodies to CD11c and CD80. CD11c is the most specific cell surface marker for mature dendritic cells. CD80 is another marker that is expressed on mature dendritic cells. Stained cells were analyzed with a flow cell cytometer and cells expressing fluorescence markers were regarded as positive. The positive rates were analyzed and calculated using Bios Consort 30 software.

CSCC[C@H](NC(=O)[C@@H](Cc1ccccc1)NC(=O)CNC(=O)CNC(=O)[C@H](N)Cc1ccc(O)cc1)C(=O)O [MEK, methionine enkephalin]
Cell Density (immature dendritic cells; MEK 7.5 ng/ml, start 2x10^5 cells/ml): 2.2 ± 0.1 10^5/ml | Increase Percent (immature dendritic cells; MEK 7.5 ng/ml): 127.1% | Cell Density (immature dendritic cells; MEK 15 ng/ml): 2.5 ± 0.2 10^5/ml | Increase Percent (immature dendritic cells; MEK 15 ng/ml): 133.3% | Cell Density (immature dendritic cells; MEK 30 ng/ml): 2.9 ± 1.2 10^5/ml | Increase Percent (immature dendritic cells; MEK 30 ng/ml): 159.2% | Cell Density (immature dendritic cells; MEK 60 ng/ml): 4.8 ± 0.2 10^5/ml | Increase Percent (immature dendritic cells; MEK 60 ng/ml): 246.5% | Cell Density (immature dendritic cells; MEK 120 ng/ml): 3.1 ± 0.1 10^5/ml | Increase Percent (immature dendritic cells; MEK 120 ng/ml): 165.5% | MEK concentration with greatest effect on growth and multiplication of dendritic cells (immature dendritic cells; tested 7.5-120 ng/ml, concentration dependent): around 60 ng/ml | IL-12 Level (cultured dendritic cells; MEK 7.5 ng/ml, control 68): 102 ± 1.1 pg/mL | IL-12 Level (cultured dendritic cells; MEK 15 ng/ml): 126 ± 0.4 pg/mL | IL-12 Level (cultured dendritic cells; MEK 30 ng/ml): 175 ± 1.6 pg/mL | IL-12 Level (cultured dendritic cells; MEK 60 ng/ml): 256 ± 0.3 pg/mL | IL-12 Level (cultured dendritic cells; MEK 120 ng/ml): 227 ± 1.9 pg/mL | cell density in micrographs versus cells not treated with MEK (dendritic cells [1]): increase in cell density | cell processes (veils or dendrites) on the dendritic cells versus cells not treated with MEK (dendritic cells [1]): increase in cell processes | CD11C(+) % (dendritic cells [2]; MEK 7.5 ng/ml, control 47.2): 49.9% | CD80(+) % (dendritic cells [2]; MEK 7.5 ng/ml, control 50.3): 51.3% | CD11C(+) % (dendritic cells [2]; MEK 15 ng/ml): 51.3% | CD80(+) % (dendritic cells [2]; MEK 15 ng/ml): 54.1% | CD11C(+) % (dendritic cells [2]; MEK 30 ng/ml): 55.6% | CD80(+) % (dendritic cells [2]; MEK 30 ng/ml): 58.7% | CD11C(+) % (dendritic cells [2]; MEK 60 ng/ml): 62.7% | CD80(+) % (dendritic cells [2]; MEK 60 ng/ml): 64.6% | CD11C(+) % (dendritic cells [2]; MEK 120 ng/ml): 57.3% | CD80(+) % (dendritic cells [2]; MEK 120 ng/ml): 63.3%
